Measured values taken from patent publication US6262065A (priority 1998, dated 2001).

Tests used:
[1] = molecular target: T1, α-mannosidase (jack bean) (Canavalia ensiformis, UniProt C0HJB3); test: inhibition of α-mannosidase (jack bean), colorimetric release of p-nitrophenol from p-nitrophenyl α-D-mannopyranoside; assay type: biochemical; conditions: initial screening
T1 construct: purchased Sigma Chemical Co
T1 sequence (C0HJB3 1-562 limits assumed): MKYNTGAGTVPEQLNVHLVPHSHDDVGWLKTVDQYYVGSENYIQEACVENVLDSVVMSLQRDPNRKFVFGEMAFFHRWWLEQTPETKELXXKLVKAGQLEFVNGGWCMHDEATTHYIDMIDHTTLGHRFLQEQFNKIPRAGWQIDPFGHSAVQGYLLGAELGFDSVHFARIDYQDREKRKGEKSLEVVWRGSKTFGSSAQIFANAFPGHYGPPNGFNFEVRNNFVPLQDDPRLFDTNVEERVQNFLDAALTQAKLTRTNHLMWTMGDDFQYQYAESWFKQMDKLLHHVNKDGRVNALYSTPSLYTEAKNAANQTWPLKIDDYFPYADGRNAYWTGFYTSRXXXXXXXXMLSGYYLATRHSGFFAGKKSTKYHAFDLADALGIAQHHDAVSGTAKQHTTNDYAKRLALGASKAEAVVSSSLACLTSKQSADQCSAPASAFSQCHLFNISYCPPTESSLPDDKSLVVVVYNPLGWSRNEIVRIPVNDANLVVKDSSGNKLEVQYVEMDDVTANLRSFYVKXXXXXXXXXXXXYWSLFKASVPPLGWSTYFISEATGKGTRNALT
T1 sequence (C0HJB3 563-981 limits assumed): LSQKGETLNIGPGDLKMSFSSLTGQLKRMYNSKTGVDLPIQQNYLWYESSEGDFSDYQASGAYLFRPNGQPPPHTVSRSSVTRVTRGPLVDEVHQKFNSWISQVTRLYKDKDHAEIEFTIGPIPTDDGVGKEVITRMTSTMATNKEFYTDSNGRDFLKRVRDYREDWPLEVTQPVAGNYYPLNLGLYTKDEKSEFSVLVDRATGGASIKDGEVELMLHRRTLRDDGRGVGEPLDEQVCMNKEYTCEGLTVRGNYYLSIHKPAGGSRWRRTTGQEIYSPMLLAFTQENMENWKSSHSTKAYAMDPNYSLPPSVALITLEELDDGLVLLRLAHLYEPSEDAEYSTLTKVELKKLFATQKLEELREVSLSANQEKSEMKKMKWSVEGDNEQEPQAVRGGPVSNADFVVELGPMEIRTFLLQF
Method: The enzyme α-mannosidase (from jack bean) and the corresponding p-nitrophenyl α-D-mannopyranoside substrate was obtained from Sigma Chemical Co. Enzyme inhibition was assayed colorimetrically by monitoring the release of p-nitrophenol from p-nitrophenyl α-D-mannopyranoside according to the procedure described by Tropea, et. al. (Tropea, J. E., et al, Biochemistry, Vol. 28, pp. 2027-2034 (1989)).

[2] = tested on: amyloglucosidase; conditions: cited from earlier work
[3] = tested on: glucosidase I; conditions: cited from earlier work
[4] = tested on: HIV; conditions: cited from earlier work
[5] = tested on: mannosidases including the glycoprotein processing enzyme mannosidase II; conditions: many mannosidases including mannosidase II; cited from earlier work

| Compound | IC50 [1] [µM] | inhibition of amyloglucosidase [2] | inhibition of glucosidase I [3] | other results |
| --- | --- | --- | --- | --- |
| OC[C@@H]1[C@@H](O)[C@@H](O)[C@H]2[C@H](O)CCCN21 [(VII), (1S,2R,3R,8R,8aR)-3-(Hydroxymethyl)-1,2,8-trihydroxyindolizidine] | 1.2 | – | – | – |
| OC[C@H]1[C@@H](O)[C@@H](O)[C@H]2[C@H](O)CCCN21 [(VIII), (1S,2R,3S,8R,8aR)-3-(Hydroxymethyl)-1,2,8-trihydroxyindolizidine] | 45 | – | – | – |
| OCC1C(O)C(O)C2C(O)CCN12 (stereo not shown) [compound 1] | – | good inhibitors | good inhibitors | – |
| OCC1C(O)C(O)C2C(O)CCN12 (stereo not shown) [compound 3] | – | good inhibitors | good inhibitors | – |
| OCC1C(O)C(O)C2C(O)CCN12 (stereo not shown) [compound 4] | – | good inhibitors | good inhibitors | anti-HIV activity [4]: shows anti-HIV activity |
| O[C@H]1[C@H]2[C@H](O)CCCN2C[C@H]1O [swainsonine, (-)-swainsonine] | – | – | – | inhibition of mannosidases [5]: potent inhibitor |
